Experimental data from ChEMBL document CHEMBL4184276, “Curcumin inspired 2-chloro/phenoxy quinoline analogues: Synthesis and biological evaluation as potential anticancer agents” (Bioorg Med Chem Lett, 2018).

Assays:
NCI-H460 = test: Cytotoxicity against human NCI-H460 cells assessed as reduction in cell viability after 48 hrs by MTT assay; format: functional, cell-based; settings: NCI-H460, 48 h
HGC-27 = test: Cytotoxicity against human HGC27 cells assessed as reduction in cell viability after 48 hrs by MTT assay; format: functional, cell-based; settings: HGC-27, 48 h
PC-3 = test: Cytotoxicity against human PC3 cells assessed as reduction in cell viability after 48 hrs by MTT assay; format: functional, cell-based; settings: PC-3, 48 h
4T1 = test: Cytotoxicity against mouse 4T1 cells assessed as reduction in cell viability after 48 hrs by MTT assay; format: functional, cell-based; settings: 4T1, 48 h
DU-145 = test: Cytotoxicity against human DU145 cells assessed as reduction in cell viability after 48 hrs by MTT assay; format: functional, cell-based; settings: DU-145, 48 h
HeLa = test: Cytotoxicity against human HeLa cells assessed as reduction in cell viability after 48 hrs by MTT assay; format: functional, cell-based
[1] = Aqueous solubility in milli-Q water at 2 mg incubated for 5 mins followed by sonication for 1 mins measured after 24 hrs by UV-Visible spectroscopic method; format: physicochemical

COc1cc(OC)c(/C=C/C(=O)/C=C/c2cc3ccccc3nc2Oc2ccccc2)c(OC)c1
> 10 µM: IC50 (NCI-H460) | IC50 (HGC-27) | IC50 (PC-3) | IC50 (4T1) | IC50 (DU-145) | IC50 (HeLa)

COc1ccc(/C=C/C(=O)/C=C/c2cc3ccccc3nc2Oc2ccccc2)c(OC)c1
> 10 µM: IC50 (NCI-H460) | IC50 (HGC-27) | IC50 (PC-3) | IC50 (4T1) | IC50 (DU-145) | IC50 (HeLa)

COc1ccc(OC)c(/C=C/C(=O)/C=C/c2cc3ccccc3nc2Oc2ccc(Br)cc2)c1
> 10 µM: IC50 (NCI-H460) | IC50 (HGC-27) | IC50 (PC-3) | IC50 (4T1) | IC50 (DU-145) | IC50 (HeLa)

COc1ccc(/C=C/C(=O)/C=C/c2cc3ccccc3nc2Oc2cccc(Cl)c2)cc1OC
> 10 µM: IC50 (NCI-H460) | IC50 (HGC-27) | IC50 (PC-3) | IC50 (4T1) | IC50 (DU-145) | IC50 (HeLa)

COc1ccc(/C=C/C(=O)/C=C/c2cc3ccccc3nc2Oc2ccccc2)cc1
> 10 µM: IC50 (NCI-H460) | IC50 (HGC-27) | IC50 (PC-3) | IC50 (4T1) | IC50 (DU-145) | IC50 (HeLa)

COc1ccc(/C=C/C(=O)/C=C/c2cc3ccccc3nc2Oc2ccccc2)cc1OC
> 10 µM: IC50 (NCI-H460) | IC50 (HGC-27) | IC50 (PC-3) | IC50 (4T1) | IC50 (DU-145) | IC50 (HeLa)

COc1ccc(OC)c(/C=C/C(=O)/C=C/c2cc3ccccc3nc2Oc2cccc(Cl)c2)c1
> 10 µM: IC50 (NCI-H460) | IC50 (HGC-27) | IC50 (PC-3) | IC50 (4T1) | IC50 (DU-145) | IC50 (HeLa)

COc1ccc(/C=C/C(=O)/C=C/c2cc3ccccc3nc2Oc2ccc(Br)cc2)c(OC)c1
> 10 µM: IC50 (NCI-H460) | IC50 (HGC-27) | IC50 (PC-3) | IC50 (4T1) | IC50 (DU-145) | IC50 (HeLa)

COc1cc(/C=C/C(=O)CC(=O)/C=C/c2ccc(O)c(OC)c2)ccc1O [CURCUMIN]
33.1 µM: IC50 (DU-145)
Soluble: solubility [1]
18.7 µM: IC50 (PC-3)
17.1 µM: IC50 (NCI-H460)

COc1ccc(/C=C/C(=O)/C=C/c2cc3ccccc3nc2Oc2cccc(Cl)c2)c(OC)c1
> 10 µM: IC50 (NCI-H460) | IC50 (HGC-27) | IC50 (PC-3) | IC50 (4T1) | IC50 (DU-145) | IC50 (HeLa)

COc1cc(OC)c(/C=C/C(=O)/C=C/c2cc3ccccc3nc2Oc2cccc(Cl)c2)c(OC)c1
> 10 µM: IC50 (NCI-H460) | IC50 (HGC-27) | IC50 (PC-3) | IC50 (4T1) | IC50 (DU-145) | IC50 (HeLa)
